Experimental data taken from patent US4490527A, “Benzo-fused heterocyclic anti-ulcer agents” (American Home Products Corporation, priority 1983, dated 1984).
Structures can show the parent of a compound that is named as a salt. Where two headings read alike, the source gives them in different places.

How the values were obtained:
H2 histamine receptors = H2 histamine receptors (Cavia porcellus, UniProt P47747); assay: cell-based; set-up: species or system guinea pig; conditions: vs histamine dose-response, 32° C., pH 7.4
Description: The guinea pig heart atrium test is carried out as follows:
A guinea pig right atrium is suspended at 1 g. tension (isometric) in a thermostatically controlled (32° C.) tissue bath (10 ml) containing oxygenated (95% O2 ; 5% CO2) Krebs-Haenseleit buffer (pH 7.4). The tissue is allowed to stabilize over 1 hour. Individual contractions are recorded with a force-displacement transducer through a strain gauge coupler. A control dose-response curve to histamine in the above described tissue bath is obtained after which the tissue is washed 3 times and allowed to re-equilibrate to basal rate. The test compound is added to the tissue bath at the desired final concentration. Thirty minutes after addition of the compound, a fresh histamine dose response curve is again obtained. Then the response to histamine in the presence of antagonist is compared to the histamine control response. This procedure is repeated, using fresh tissues, for each concentration of antagonist tested. […] Cimetidine is used as the standard for this test.

gastric acid secretion = assay: gastric secretion in the rat, modified Shay procedure of pylorus ligation; type: in vivo; conditions: intraduodenal, 4 h, i.d., four hours after ligation, read-out: % Inhibition (of acid output)
Description: The procedure for testing gastric secretion in the rat, a modification of the procedure of Shay et al., Gastroenterology, 26, 906-13 (1954) is carried out as follows: Male Charles River rats weighing 200-300 grams are deprived of food but not water for 24 hours prior to use. Water is, however, withheld during the experiment. The rats are weighed, anesthetized, and the pylorus ligated according to the method of Shay et al. Treatment or vehicle control is then administered interduodenally (i.d.). Rats are housed 2/cage and sacrificed with CO2 four hours after ligation. The stomachs are removed, rinsed, and contents emptied into a graduated centrifuge tube. The tubes are centrifuged for 20 minutes at 2,000 RPM and the volume of gastric juice recorded. Any samples obviously contaminated by feces, food or hemolysis are eliminated. An aliquot of each is frozen for later analysis of Na^+, K^+ and Cl^- concentration. The pH is measured and 1 ml. of gastric juice is titrated with 0.1N NaOH to a pH of 7.0-7.4. Titratable acid output is calculated in microequivalents and the percent inhibition of acid output is calculated as follows: [formula]

[1] = 30 min after addition, results of three experiments
[2] = 30 min after addition, results of three experiments, read-out: pA2 Value (apparent dissociation constant of the H2 antagonist) (converted)
[3] = marked *, result of only one experiment, read-out: KB value

H2 histamine receptors, sequence (P47747 whole entry): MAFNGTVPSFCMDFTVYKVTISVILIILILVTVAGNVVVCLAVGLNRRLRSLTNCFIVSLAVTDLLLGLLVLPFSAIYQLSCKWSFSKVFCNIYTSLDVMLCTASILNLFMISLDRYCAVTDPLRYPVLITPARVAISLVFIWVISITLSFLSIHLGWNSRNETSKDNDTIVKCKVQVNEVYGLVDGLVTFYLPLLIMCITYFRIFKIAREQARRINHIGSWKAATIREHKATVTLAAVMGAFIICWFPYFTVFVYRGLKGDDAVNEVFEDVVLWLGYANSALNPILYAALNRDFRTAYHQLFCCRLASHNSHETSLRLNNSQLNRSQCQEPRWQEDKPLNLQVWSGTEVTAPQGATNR

O=S1(=O)N=C(NCCCOc2cccc(CN3CCOCC3)c2)c2ccccc21 [Example 16, N-[3-[3-(4-morpholinylmethyl)phenoxy]propyl]-1,2-benzisothiazol-3-amine 1,1-dioxide, hydrochloride]
pA2 Value (apparent dissociation constant of the H2 antagonist) (H2 histamine receptors; [1]): < 7.0
inhibition in vivo at 32 mg/kg (gastric acid secretion): 39%

O=S1(=O)N=C(NCCCOc2cccc(CN3CCCCC3)c2)c2cc(Cl)ccc21 [Example 11, N-[3-[3-[(1-piperidinyl)methyl]phenoxy]propyl]-5-chloro-1,2-benzisothiazol-3-amine 1,1-dioxide, hydrochloride]
Kb (H2 histamine receptors; [2]): 0.0794 µM

NC(N)=Nc1nc(CSCCNC2=NS(=O)(=O)c3ccccc32)cs1 [Example 3, [4-[[[2-[(1,2-benzisothiazol-3yl)amino]ethyl]thio]methyl]-2-thiazolyl]guanidine S',S'-dioxide]
Kb (H2 histamine receptors; [2]): 0.002 µM

CCCCNCc1cccc(OCCCNC2=NS(=O)(=O)c3ccccc32)c1 [Example 32, N-[3-[3-[(butylamino)methyl]phenoxy]propyl]-1,2-benzisothiazol-3-amine 1,1-dioxide, hydrochloride, hemihydrate]
Kb (H2 histamine receptors; [2]): 0.0631 µM

CNC(=NC#N)NCCSCc1csc(N=C(N)N)n1 [tiotidine, reference compound]
inhibition in vivo at 4 mg/kg (gastric acid secretion): 16%

CCCCCN(CCCCC)Cc1cccc(OCCCNC2=NS(=O)(=O)c3ccccc32)c1 [Example 37, N-[3-[3-[(dipentylamino)methyl]phenoxy]propyl]-1,2-benzisothiazol-3-amine 1,1-dioxide]
inhibition in vivo at 32 mg/kg (gastric acid secretion): 38%

CCCCN(C)Cc1cccc(OCCCNC2=NS(=O)(=O)c3ccccc32)c1 [Example 36, N-[3-[3-[(butylmethylamino)methyl]phenoxy]propyl]-1,2-benzisothiazol-3-amine 1,1-dioxide]
Kb (H2 histamine receptors; [3]): 0.048 µM
inhibition in vivo at 32 mg/kg (gastric acid secretion): 84%

O=S1(=O)N=C(NCCCOc2cccc(CN3CCSC3)c2)c2ccccc21 [Example 25, N-[3-[3-[(3-thiazolidinyl)methyl]phenoxy]propyl]-1,2-benzisothiazol-3-amine 1,1-dioxide, hydrochloride]
Kb (H2 histamine receptors; [2]): 0.0407 µM
inhibition in vivo at 4 mg/kg (gastric acid secretion): 48%

O=S1(=O)N=C(NCCCOc2cccc(CN3CCCCC3)c2)c2ccc(Cl)cc21 [Example 7, N-[3-[3-[(1-piperidinyl)methyl]phenoxy]propyl]-6-chloro-1,2-benzisothiazol-3-amine 1,1-dioxide, hydrochloride salt hemihydrate]
Kb (H2 histamine receptors; [2]): 0.0316 µM

CCCCCN(C)Cc1cccc(OCCCNC2=NS(=O)(=O)c3ccccc32)c1 [Example 34, N-[3-[3-[(methylpentylamino)methyl]phenoxy]propyl]-1,2-benzisothiazol-3-amine 1,1-dioxide]
Kb (H2 histamine receptors; [2]): 0.01 µM

CN(C)Cc1ccc(CSCCNC2=NS(=O)(=O)c3cscc32)o1 [Example 39, N-[2-[[[5-[(Dimethylamino)Methyl]-2-Furanyl]Methyl]Thio]Ethyl]Thieno[3,4-d]Isothiazol-3-Amine-1,1-Dioxide]
Kb (H2 histamine receptors; [3]): 0.001 µM
inhibition in vivo at 16 mg/kg (gastric acid secretion): 87%

O=S1(=O)N=C(NCCCOc2cccc(CNCc3ccccc3)c2)c2ccccc21 [Example 30, N-[3-[3-[(benzylamino)methyl]phenoxy]propyl]-1,2-benzisothiazol-3-amine1,1-dioxide, hydrochloride, quarter hydrate]
Kb (H2 histamine receptors; [2]): 0.0631 µM

NC(N)=Nc1nc(CSCCNC2=NS(=O)(=O)c3cscc32)cs1 [Example 40, [4-[[[2-[(Thieno[3,4-d]Isothiazol-3-yl)Amino]Ethyl]Thio]Methyl]-2-Thiazolyl]Guanidine-S',S'-Dioxide]
Kb (H2 histamine receptors; [3]): 0.1 µM

Cc1ccc2c(c1)C(NCCCOc1cccc(CN3CCCCC3)c1)=NS2(=O)=O [Example 10, N-[3-[3-[(1-piperidinyl)methyl]phenoxy]propyl]-5-methyl-1,2-benzisothiazol-3-amine 1,1-dioxide]
Kb (H2 histamine receptors; [2]): 0.0501 µM

CC(C)CN(Cc1cccc(OCCCNC2=NS(=O)(=O)c3ccccc32)c1)CC(C)C [Example 31, N-[3-[3-[[bis(2-methylpropyl)amino]methyl]phenoxy]-propyl]-1,2-benzisothiazol-3-amine 1,1-dioxide]
Kb (H2 histamine receptors; [2]): 0.0631 µM

CCCCN(CCC)Cc1cccc(OCCCNC2=NS(=O)(=O)c3ccccc32)c1 [Example 35, N-[3-[3-[(butylpropylamino)methyl]phenoxy]propyl]-1,2-benzisothiazol-3-amine 1,1-dioxide]
Kb (H2 histamine receptors; [3]): 0.014 µM
inhibition in vivo at 32 mg/kg (gastric acid secretion): 55%

O=S1(=O)N=C(NCCCOc2cccc(CNCc3ccco3)c2)c2ccccc21 [Example 29, N-[3-[3-[[[(2-furanyl)methyl]amino]methyl]phenoxy]-propyl]-1,2-benzisothiazol-3amine 1,1-dioxide, hydrochloride]
Kb (H2 histamine receptors; [2]): 0.0692 µM
inhibition in vivo at 32 mg/kg (gastric acid secretion): 50%

COc1ccc2c(c1)C(NCCCOc1cccc(CN3CCCCC3)c1)=NS2(=O)=O [Example 12, N-[3-[3-[(1-piperidinyl)methyl]phenoxy]propyl]-5-methoxy-1,2-benzisothiazol-3-amine 1,1-dioxide, 2/3 oxalate, ethanolate]
pA2 Value (apparent dissociation constant of the H2 antagonist) (H2 histamine receptors; [1]): 8.0

O=C1N=C(NCCCOc2cccc(CN3CCCCC3)c2)c2ccccc21 [Example 4, 3-[[3-[3-[(1-piperidinyl)methyl]phenoxy]propyl]amino]-1H isoindol-1-one, dihydrochloride, quarter hydrate]
Kb (H2 histamine receptors; [2]): 0.251 µM

O=[N+]([O-])c1ccc2c(c1)S(=O)(=O)N=C2NCCCOc1cccc(CN2CCCCC2)c1 [Example 5, N-[3-[3-[(1-piperidinyl)methyl]phenoxy]propyl]-6-nitro-1,2-benzisothiazol-3-amine 1,1-dioxide, hydrochloride]
Kb (H2 histamine receptors; [2]): 0.0501 µM

O=S1(=O)N=C(NCCCOc2cccc(CNC3CCCCC3)c2)c2ccccc21 [Example 27, N-[3-[3-[(cyclohexylamino)methyl]phenoxy]propyl]-1,2-benzisothiazol-3-amine 1,1-dioxide, hydrochloride]
Kb (H2 histamine receptors; [2]): 0.0447 µM

Nc1ccc2c(c1)S(=O)(=O)N=C2NCCCOc1cccc(CN2CCCCC2)c1 [Example 6, N-[3-[3-[(1-piperidinyl)methyl]phenoxy]propyl]-6-amino-1,2-benzisothiazol-3-amine 1,1-dioxide]
Kb (H2 histamine receptors; [2]): 0.02 µM

O=S1(=O)N=C(NCCCOc2cccc(CNC3CCCC3)c2)c2ccccc21 [Example 28, N-[3-[3-[(cyclopentylamino)methyl]phenoxy]propyl]-1,2-benzisothiazol-3-amine 1,1-dioxide, hydrochloride]
Kb (H2 histamine receptors; [2]): 0.0251 µM
inhibition in vivo at 16 mg/kg (gastric acid secretion): 75%
inhibition in vivo at 32 mg/kg (gastric acid secretion): 49%

O=S1(=O)N=C(NCCCOc2cccc(CN3CCCCC3)c2)c2cc(Cl)c(Cl)cc21 [Example 9, N-[3-[3-[(1-piperidinyl)methyl]phenoxy]propyl]-5,6-dichloro-1,2-benzisothiazol-3-amine 1,1-dioxide, monohydrochloride salt]
pA2 Value (apparent dissociation constant of the H2 antagonist) (H2 histamine receptors; [1]): 6.7

O=S1(=O)N=C(NCCCOc2cccc(CN3CCCCC3)c2)c2ccc(F)cc21 [Example 8, N-[3-[3-[(1-piperidinyl)methyl]phenoxy]propyl]-6-fluoro-1,2-benzisothiazol-3-amine 1,1-dioxide]
Kb (H2 histamine receptors; [2]): 0.02 µM

CCCCN(CCCC)Cc1cccc(OCCCNC2=NS(=O)(=O)c3ccccc32)c1 [Example 22, N-[3-[3-[(dibutylamino)methyl]phenoxy]propyl]-1,2-benzisothiazol-3-amine 1 ,1-dioxide, hydrochloride, hemihydrate]
Kb (H2 histamine receptors; [2]): 0.00631 µM
inhibition in vivo at 4 mg/kg (gastric acid secretion): 42%
inhibition in vivo at 8 mg/kg (gastric acid secretion; Dose 8 mg/kg): 62%
inhibition in vivo at 16 mg/kg (gastric acid secretion): 53%
inhibition in vivo at 32 mg/kg (gastric acid secretion): 68%

O=S1(=O)N=C(NCCCOc2cccc(CN3CCCCCCC3)c2)c2ccccc21 [Example 26, N-[3-[3-[(octahydro-1(2H)-azocinyl)methyl]phenoxy]-propyl]-1,2-benzisothiazol-3-amine 1,1-dioxide, hydrochloride]
Kb (H2 histamine receptors; [2]): 0.02 µM

CN(C)Cc1cccc(OCCCNC2=NS(=O)(=O)c3ccccc32)c1 [Example 21, N-[3-[3-[(dimethylamino)methyl]phenoxy]propyl]-1,2-benzisothiazol-3-amine 1,1-dioxide, hydrochloride, hemihydrate]
Kb (H2 histamine receptors; [2]): 0.0794 µM
inhibition in vivo at 32 mg/kg (gastric acid secretion): 72%

O=S1(=O)N=C(NCCCOc2cccc(CN3CCSCC3)c2)c2ccccc21 [Example 23, N-[3-[3-[(4-thiomorpholinyl)methyl]phenoxy]propyl]-1,2-benzisothiazol-3-amine 1,1-dioxide, hydrochloride]
Kb (H2 histamine receptors; [2]): 0.0251 µM

O=S1(=O)N=C(NCCCOc2cccc(CN3CCCCC3)c2)c2ccccc21 [Example 2, N-[3-[3-[(1-piperidinyl)methyl]phenoxy]propyl]-1,2-benzisothiazol-3-amine 1,1-dioxide]
Kb (H2 histamine receptors; [2]): 0.00794 µM

CCN(CC)Cc1cccc(OCCCNC2=NS(=O)(=O)c3ccccc32)c1 [Example 19, N-[3-[3-[(diethylamino)methyl]phenoxy]propyl]-1,2-benzisothiazol-3-amine 1 ,1-dioxide, hydrochloride]
Kb (H2 histamine receptors; [2]): 0.2 µM
inhibition in vivo at 16 mg/kg (gastric acid secretion): 52%
inhibition in vivo at 32 mg/kg (gastric acid secretion): 78%
